According to PubChem BioAssay AID2765 (Broad Institute, 2010):
Activity calls are given as the source filed them.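 How the source made its calls: active means half-maximal concentration for the rise in caspase light signal at or below ten times the top tested dose; inconclusive means flat fit between 30% and 70% activity, or unreliable curve fit; inactive means the rest.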

Test system: MEF A1-2A-BIM cells, caspase 3/7 luminescence, 3 h
Assay: caspase activation in A1-2A-BIM MEF cells, dose response, A1 inhibitor project, cell-based, luminescence, retest (AID 2765)

| Structure (SMILES) | EC50 |
| --- | --- |
| Cc1ccc2c(c1)c(C1=c3ccccc3=NC1=O)c(O)n2C | > 35 µM (inactive) |
| Cc1ccc(CS(=O)(=O)c2ncc(Cl)c(C(=O)Nc3ccc(OC(F)F)cc3)n2)cc1 | > 35 µM (inactive) |
| O=[N+]([O-])c1ccc(N2CCCC2)c(F)c1Br | > 35 µM (inactive) |
| CCn1c(CNc2ccc(F)cc2)nnc1SCC(=O)Nc1ccccc1OC | > 35 µM (inactive) |
| CSc1cccc(NS(=O)(=O)c2cn(C)cn2)c1 | > 35 µM (inactive) |
| CCOc1cc(/C=C\[N+](=O)[O-])ccc1OCC(=O)Nc1ccccc1C | 3.67 µM |
| Cc1cc(NC(=O)c2ccc3c(c2)C(=O)N(Cc2ccccc2)C3=O)no1 | > 35 µM (inactive) |
| CCCc1nc2cc3c(cc2[nH]1)n(C)c(=O)n3C | > 35 µM (inactive) |
| CN(c1ccc(OCC(=O)NC2CCC(O)CC2)cc1)S(=O)(=O)c1ccc(Cl)cc1 (stereo not drawn) | > 35 µM (inactive) |
| O=C(c1cc(C2CC2)nn1-c1ccccc1)N1CCN(S(=O)(=O)c2cccc(F)c2)CC1 | > 35 µM (inactive) |
| O=C(Cc1ccccc1)Oc1cccc(N2C(=O)CCC2=O)c1 | > 35 µM (inactive) |
| O=C1NCCCC1C(=O)N/N=C/c1cccc([N+](=O)[O-])c1 (stereo not drawn) | > 35 µM (inactive) |
| CC(C)CN(C(=O)C1CSC2(C)CCC(=O)N12)c1c(N)n(Cc2ccccc2)c(=O)[nH]c1=O (stereo not drawn) | > 35 µM (inactive) |
| O=C(CSc1ncccc1C(=O)O)NC1CCCCC1 | > 35 µM (inactive) |
| O=C1ON=C(c2ccc(Cl)cc2)/C1=C/c1ccc(O)cc1 | > 35 µM (inactive) |
| CCc1nc(N=Nc2c(O)[nH]c3ccccc23)c2c3c(sc2n1)CCC3 | 20.8 µM |
| Cc1sc(NC(=O)CSC2=NCCS2)nc1-c1ccccc1 | > 35 µM (inactive) |
| Cc1ccn(C(=O)c2ccc(NC(=O)C3CCCCC3)cc2)n1 | > 35 µM (inactive) |
| O=C(Nc1ccc([N+](=O)[O-])cn1)c1cc(-c2cccc(Br)c2)nc2ccccc12 | > 35 µM (inactive) |
| CC(C)(C)[C@H](N)C(=O)N[C@H]1CCC2C3CC=C4C[C@@H](O)CC[C@]4(C)C3CC[C@@]21C (stereo partly drawn) | > 35 µM (inactive) |
| COc1ccc(CN2CCCCC2C)cc1C (stereo not drawn) | > 35 µM (inactive) |
| COc1ccccc1OCC(=O)NNC(=O)c1ccc(F)c(S(=O)(=O)N2CCOCC2)c1 | > 35 µM (inactive) |
| COc1ccc(-c2nc(NC(=O)c3n[nH]c(=O)c4ccccc34)sc2C)cc1 | > 35 µM (inactive) |
| COc1ccc(NC(=O)c2cccc3c2C(=O)c2ccc(-c4ccc(F)cc4OCc4ccccc4)cc2S3(=O)=O)cc1 | > 35 µM (inactive) |
| S=C(NCCc1ccccc1)NC1CCCCCC1 | > 35 µM (inactive) |

| Structure (SMILES) | EC50 |
| --- | --- |
| COc1ccc2c(-c3cc4ccc(OCc5ccc(F)cc5)cc4oc3=O)cc(=O)oc2c1 | 30.1 µM |
| O=C(N/N=C/c1ccccc1O)C1CC(=O)N(c2ccc(F)cc2)C1 (stereo not drawn) | > 35 µM (inactive) |
| CCOC(=O)CSC1=N/C(=C/c2ccc(-n3cncn3)cc2)C(=O)N1C(C)=O | 25.6 µM |
| CC(=O)N1CCN(C(=S)c2ccc([N+](=O)[O-])cc2)CC1 | > 35 µM (inactive) |
| S=C(Nc1ccccc1)N1N=C(c2cccs2)CC1c1cccs1 (stereo not drawn) | > 35 µM (inactive) |
| CCOC(=O)C[C@H]1c2ccccc2S(=O)(=O)N1Cc1cccc(C(F)(F)F)c1 | > 35 µM (inactive) |
| CC(=O)OC[C@]12CC[C@H]3[C@@](C)(CC[C@H]4C(C)(C)CCC[C@]34C)[C@@H]1C[C@H](C1=CC(=O)O[C@H]1OC(C)=O)O2 | 3.27 µM |
| O=C(COC(=O)/C=C/c1cccc(Cl)c1Cl)Nc1ccc2[nH]c(=O)[nH]c2c1 | > 35 µM (inactive) |
| CCCN1CCN(CCCNC(=O)CCCn2nc(C)c3sc4ccccc4c3c2=O)CC1 | > 35 µM (inactive) |
| Cn1ccc(=NC=C(C#N)C#N)c2ccccc21 | > 35 µM (inactive) |
| CCOC(=O)CSc1nnc(Cc2ccc(OC)cc2)n1-c1ccccc1 | > 35 µM (inactive) |
| CCCNC(=O)C(Cc1ccccc1)NC(=O)Cc1ccccc1 (stereo not drawn) | > 35 µM (inactive) |
| CC(C)CC(=O)Nc1ccc2c(c1)OCO2 | > 35 µM (inactive) |
| O=C1NC(=O)C(c2cn(-c3ccccc3)nc2-c2ccc(F)cc2)N1 (stereo not drawn) | > 35 µM (inactive) |
| CCOC(=O)CNC(=O)N1CCCC(CNS(=O)(=O)Cc2ccccc2)C1 (stereo not drawn) | > 35 µM (inactive) |
| Cc1cccc(C)c1NC(=O)C(Cl)C(=O)c1ccccc1 (stereo not drawn) | > 35 µM (inactive) |
| O=C(N/N=C/c1ccco1)c1cc(-c2cccc(Br)c2)nc2ccccc12 | > 35 µM (inactive) |
| Cc1c(C(=O)O)cccc1N1C(=O)Nc2ccccc2N1O | > 35 µM (inactive) |
| CN(C)CC#CCCCCCCC#CCN(C)C | > 35 µM (inactive) |
| CCC(C)[C@@H](C(=O)NCC1CCC(C(=O)O)CC1)n1nnc2ccccc2c1=O (stereo partly drawn) | > 35 µM (inactive) |
| c1ccc2c(CNc3ccc(CNc4ncn[nH]4)cc3)cccc2c1 | > 35 µM (inactive) |
| COc1ccc(OC[C@@H](O)CNC(=O)c2cccc3c2C(=O)c2ccc(-c4ccc(F)cc4OCc4ccccc4)cc2S3(=O)=O)cc1 | > 35 µM (inactive) |
| CN(C)Cc1ccc(O)c(CCc2ccccc2)n1 | > 35 µM (inactive) |
| CCN(CC(=O)NCc1ccc(Cl)cc1)S(=O)(=O)c1ccc(F)cc1 | > 35 µM (inactive) |
| CCCNC(=O)C(Cc1ccccc1F)NC(=O)c1ccccn1 (stereo not drawn) | > 35 µM (inactive) |

| Structure (SMILES) | EC50 |
| --- | --- |
| O=C(CCCCCn1c(=S)[nH]c2ccsc2c1=O)NC1CCCCC1 | > 35 µM (inactive) |
| CS(=O)(=O)c1sc(C#N)c2c1C(=O)CC(c1ccccc1)C2 (stereo not drawn) | > 35 µM (inactive) |
| Cc1ccc(C(=O)/C=C/C(=O)c2ccc(C)cc2)cc1 | 19.4 µM |
| O=C(c1ccco1)N1CCN(C(=O)C2CCN(S(=O)(=O)c3cccs3)CC2)CC1 | > 35 µM (inactive) |
| O=C(c1c[nH]c2ccccc12)C(Cl)c1ccccc1 (stereo not drawn) | > 35 µM (inactive) |
| O=C1Nc2ncccc2OC1CCO (stereo not drawn) | > 35 µM (inactive) |
| O=C(NNC(=O)c1cc(C(F)(F)F)cc(C(F)(F)F)c1)c1ccc(Cl)cc1 | > 35 µM (inactive) |
| Cc1ccc(NC(=S)NC(NC(=O)Cc2cccc3ccccc23)C(Cl)(Cl)Cl)cc1 (stereo not drawn) | 20 µM |
| CC1=NOC(=O)/C1=C\c1ccc(-c2cccc(Cl)c2)o1 | > 35 µM (inactive) |
| COc1ccc(OC)c(C2C(C(C)=O)=C(O)C(=O)N2Cc2cccnc2)c1 (stereo not drawn) | > 35 µM (inactive) |
| CCCn1c(SCC(=O)NC)nc2sc3c(c2c1=O)CCC3 | > 35 µM (inactive) |
| CC(=O)Nc1ccc([N+](=O)[O-])c(CS(=O)(=O)c2ccc(C)cc2)c1[N+](=O)[O-] | > 35 µM (inactive) |
| CCc1ccc2nc(N(CCCN(C)C)C(=O)c3ccc(S(=O)(=O)N4CCc5ccccc5C4)cc3)sc2c1 | > 35 µM (inactive) |
| COc1cc2c3c([nH]c2cc1F)C(=O)NCC3 | > 35 µM (inactive) |
| Cc1nc2sc(C(=O)O)c(N)c2c2c1COC(C)(C)C2 | > 35 µM (inactive) |
| CCOC(=O)C(NC(=O)c1ccc(OC)cc1)(N1CCCC1=O)C(F)(F)F (stereo not drawn) | > 35 µM (inactive) |
| Cc1ccc(CNC(=O)CCS(=O)(=O)c2ccc3c(c2)CC(C)N3C(=O)C2CC2)o1 (stereo not drawn) | > 35 µM (inactive) |
| Cc1ccc(NC(=O)c2cccc(S(=O)(=O)NCc3ccccc3)c2)nc1 | > 35 µM (inactive) |
| COc1cc(NC(=O)c2ccccc2)c(OC)cc1NC(=O)Cc1ccc(Br)cc1 | > 35 µM (inactive) |
| CCn1c(Cl)c(C=O)s/c1=N\S(=O)(=O)c1ccccc1 | > 35 µM (inactive) |
| C/C(=N\NC(=O)CCC(=O)NCc1ccccc1)c1ccco1 | > 35 µM (inactive) |
| COc1cc(/C=C/[N+](=O)[O-])ccc1OC(=O)c1cccnc1 | 12.5 µM |
| COc1ccc(CNS(=O)(=O)c2ccccc2Br)cc1 | > 35 µM (inactive) |
| CC(=O)N1CCN(C2c3cccc4cccc(c34)C2NS(=O)(=O)c2ccccc2)CC1 (stereo not drawn) | > 35 µM (inactive) |
| O=C(NNc1cc(Br)c(O)c(Br)c1)c1ccccc1 | > 35 µM (inactive) |

| Structure (SMILES) | EC50 |
| --- | --- |
| Oc1ccc(C[C@H]2CNCCN2CCCCC2CCCCC2)cc1 | > 35 µM (inactive) |
| Cn1cnnc1SCC(=O)Nc1ccc(F)cc1 | > 35 µM (inactive) |
| Cc1ccc(/C=C/C(=O)Nc2sc(C)c(C)c2C(=O)OC(C)C)o1 | > 35 µM (inactive) |
| Cc1ccc(N2CCN(C(=S)Nc3ccccc3C)CC2)cc1 | > 35 µM (inactive) |
| COc1ccc(NC(=O)CN2CCC(NC(=O)c3ccc(OC)cc3)CC2)cc1 | > 35 µM (inactive) |
| Cc1ccc(-c2noc(CSc3nnc(CCc4ccccc4)n3-c3ccccc3)n2)cc1 | > 35 µM (inactive) |
| CN(C)c1ccc(NC(=O)C2CCCN(S(=O)(=O)c3ccccc3)C2)cc1 (stereo not drawn) | > 35 µM (inactive) |
| O=C(N/N=C\c1cccc(Cl)c1)c1ccc(Cn2cccn2)o1 | > 35 µM (inactive) |
| COc1ccc(S(=O)(=O)NC2CCCC2)cc1C(N)=O | > 35 µM (inactive) |
| COc1ccc(OC)c2[nH]c(C(=O)N3CCC(C(=O)O)CC3)cc12 | > 35 µM (inactive) |
| Cc1c(C)c(C)c(C(=O)CCc2cccc(NC(=O)CCC(=O)O)c2)c(C)c1C | > 35 µM (inactive) |
| NC(=S)NNC(=O)/C(=C/c1ccc(Br)cc1)NC(=O)c1ccccc1 | > 35 µM (inactive) |
| Cc1nn(Cc2c(Cl)cccc2Cl)c(C)c1NC(=O)c1cn(-c2ccccc2)nc1-c1ccccc1 | 15.1 µM |
| CC(C)(C)c1ccc(C(=O)Nc2ccc(O)c3c(=O)cc(-c4cccc(Cl)c4)oc23)cc1 | > 35 µM (inactive) |
| CC1=C/C(=N\OS(=O)(=O)c2ccccc2)C(C)=CC1=O | > 35 µM (inactive) |
| CCc1cccc(C)c1Nc1nc2ccccc2n2cnnc12 | > 35 µM (inactive) |
| COc1ccc2[nH]c(C(=O)Nc3ccc(F)cc3Br)cc2c1 | > 35 µM (inactive) |
| Cc1occc1-c1nnc(SCC(=O)NCCc2ccccc2)n1Cc1ccccc1 | > 35 µM (inactive) |
| CC(=O)c1ccc(N2CCN(S(=O)(=O)c3c(C(=O)N4CCCC4)c(C)n(C)c3C)CC2)cc1 | > 35 µM (inactive) |
| Cc1ccc(NC(=S)N(CCCN2CCCC2)Cc2cccn2Cc2ccc(Cl)cc2)cc1Cl | > 35 µM (inactive) |
| CCC(=O)N/C(N)=N/c1nc(C)c2cc(C)c(C)cc2n1 | > 35 µM (inactive) |
| CN1CCN(CCCNC(=O)c2ccc3c(Cl)c4c(nc3c2)CCCC4)CC1 | > 35 µM (inactive) |
| CCOc1cc2[nH]c(=S)n(CCCOC)c(=O)c2cc1OCC | > 35 µM (inactive) |
